From ChEMBL document CHEMBL4373673, “Druggability profile of stilbene-derived PPAR agonists: determination of physicochemical properties and PAMPA study” (Medchemcomm, 2019)
Converted amounts (≈) assume the structure as drawn.

Columns and labels:
[1] = Thermodynamic solubility of compound in buffer containing HCl/KCl with 1% v/v DMSO at pH 1.2 incubated for 24 hrs by spectrophotometric analysis; format: physicochemical; settings: for Therm_solubility: buffer, pH 1.2, 24 h; for solubility thermodynamic at 24 h: HCl/KCl buffer, pH 1.2, read-out: Therm_solubility
[2] = Kinetic solubility of compound in HDM-PAMPA with buffer containing 5% DMSO at pH 6.8 incubated for 5 hrs by spectrophotometric analysis; format: ADME; settings: for solubility kinetic at 5 h: HDM-PAMPA buffer, pH 6.8, read-out: Kinetic_solubility
[3] = Octanol/water partition coefficient, logP of compound by RP-UHPLC analysis; format: physicochemical
[4] = Thermodynamic solubility of compound in buffer containing KH2PO4/Na2HPO4 with 1% v/v DMSO at pH 6.8 incubated for 24 hrs by spectrophotometric analysis; format: physicochemical; settings: for solubility thermodynamic at 24 h: KH2PO4/Na2HPO4 buffer, pH 6.8, read-out: Therm_solubility; for Therm_solubility: buffer, pH 6.8, 24 h
[5] = Kinetic solubility of compound in HDM-PAMPA with buffer containing 5% DMSO at pH 1.2 incubated for 5 hrs by spectrophotometric analysis; format: ADME; settings: for Kinetic_solubility: pampa, pH 1.2, 5 h; for solubility kinetic at 5 h: HDM-PAMPA buffer, pH 1.2, read-out: Kinetic_solubility
[6] = Apparent solubility of compound in fed state simulated intestinal fluid at pH 5 by spectrophotometric analysis; format: physicochemical
[7] = Thermodynamic solubility of compound in buffer containing KH2PO4/Na2HPO4 with 1% v/v DMSO at pH 7.4 incubated for 24 hrs by spectrophotometric analysis; format: physicochemical; settings: for solubility thermodynamic at 24 h: KH2PO4/Na2HPO4 buffer, pH 7.4, read-out: Therm_solubility
[8] = Apparent solubility of compound in fasted state simulated intestinal fluid at pH 6.5 by spectrophotometric analysis; format: physicochemical
[9] = Kinetic solubility of compound in HDM-PAMPA with buffer containing 5% DMSO at pH 7.4 incubated for 5 hrs by spectrophotometric analysis; format: ADME; settings: read-out: Kinetic_solubility
[10] = Solubility of the compound in water; format: physicochemical
[11] = Ratio of compound kinetic solubility to gemfibrozil kinetic solubility in HDM-PAMPA with buffer containing 5% DMSO at pH 6.8 incubated for 5 hrs by spectrophotometric analysis
[12] = Ratio of compound kinetic solubility to clofibric acid kinetic solubility in HDM-PAMPA with buffer containing 5% DMSO at pH 6.8 incubated for 5 hrs by spectrophotometric analysis
[13] = Ratio of compound kinetic solubility to gemfibrozil kinetic solubility in HDM-PAMPA with buffer containing 5% DMSO at pH 7.4 incubated for 5 hrs by spectrophotometric analysis
[14] = Ratio of compound kinetic solubility to clofibric acid kinetic solubility in HDM-PAMPA with buffer containing 5% DMSO at pH 7.4 incubated for 5 hrs by spectrophotometric analysis

Therm_solubility [1]	solubility kinetic at 5 h [2]	logP [3]	solubility thermodynamic at 24 h [4]	Kinetic_solubility [5]	solubility [6]	solubility thermodynamic at 24 h [7]	solubility [8]	solubility kinetic at 5 h [9]	Kinetic_solubility ([2]; pampa, pH 6.8, 5 h)	Therm_solubility [4]	solubility thermodynamic at 24 h [1]	solubility kinetic at 5 h [5]	Therm_solubility ([7]; buffer, pH 7.4, 24 h)	SMILES	solubility [10]	Ratio [11]	Ratio [12]	Ratio [13]	Ratio [14]
Insoluble(Bld)	68.4 µg/mL (≈ 154 µM)	6.55	16 µg/mL (≈ 35.9 µM)	Insoluble(Bld)	17.8 µg/mL (≈ 39.9 µM)	17.5 µg/mL (≈ 39.3 µM)	19.6 µg/mL (≈ 44.2 µM)	67.6 µg/mL (≈ 152 µM)						CC(C)(Oc1ccc(CCCOc2ccc(C(=O)/C=C/c3ccccc3)cc2)cc1)C(=O)O					
Insoluble(Bld)		6.08		Insoluble(Bld)	6.23 µg/mL (≈ 17.6 µM)	1.65 µg/mL (≈ 4.66 µM)	7.13 µg/mL (≈ 20.1 µM)	7.32 µg/mL (≈ 20.7 µM)	Insoluble(Bld)	Insoluble(Bld)				COc1ccc(/C=C/c2ccc(OCCCC(C)(C)C(=O)O)cc2)cc1					
	> 120 µg/mL	4.9	> 25 µg/mL		> 25 µg/mL	> 25 µg/mL	> 25 µg/mL	> 120 µg/mL			15.5 µg/mL (≈ 61.8 µM)	33.2 µg/mL (≈ 133 µM)		Cc1ccc(C)c(OCCCC(C)(C)C(=O)O)c1 [GEMFIBROZIL]					
Insoluble(Bld)	13.6 µg/mL (≈ 41.9 µM)	6.95		Insoluble(Bld)	7.39 µg/mL (≈ 22.8 µM)		8.7 µg/mL (≈ 26.8 µM)	13 µg/mL (≈ 40.1 µM)		Insoluble(Bld)			Insoluble(Bld)	CC(C)(CCCOc1ccc(/C=C/c2ccccc2)cc1)C(=O)O					
														CCN(C)C(=O)Oc1cccc([C@H](C)N(C)C)c1 [RIVASTIGMINE]	2040 µg/mL (≈ 8150 µM)				
Insoluble(Bld)	44.2 µg/mL (≈ 106 µM)	7.44	27.9 µg/mL (≈ 66.9 µM)		13.8 µg/mL (≈ 33.3 µM)	26.9 µg/mL (≈ 64.7 µM)	24.8 µg/mL (≈ 59.6 µM)	43 µg/mL (≈ 103 µM)				0.89 µg/mL (≈ 2.14 µM)		CC(C)(Oc1ccc(CCCOc2ccc(/C=C/c3ccccc3)cc2)cc1)C(=O)O					
	> 100 µg/mL	2.96	> 50 µg/mL		> 50 µg/mL	> 50 µg/mL	> 50 µg/mL	> 100 µg/mL			> 50 µg/mL	> 100 µg/mL		CC(C)(Oc1ccc(Cl)cc1)C(=O)O [CLOFIBRIC ACID]					
Insoluble(Bld)	300 µg/mL (≈ 741 µM)	6.63	13.9 µg/mL (≈ 34.5 µM)	Insoluble(Bld)	> 100 µg/mL	25.5 µg/mL (≈ 62.9 µM)	63.5 µg/mL (≈ 157 µM)	296 µg/mL (≈ 733 µM)						CC(C)(Oc1ccc(CCOc2ccc(/N=N/c3ccccc3)cc2)cc1)C(=O)O		2 to 3	2 to 3	2 to 3	2 to 3
